Data published in patent publication US20020091262A1, “Substituted aryl or heteroarylamides having retinoid-like biological activity” (Allergan, priority 1995, published 2002).

Legend:
RXRβ = target: T1, RXRβ (UniProt P28704); assay: Ligand binding assay, RXRβ; conditions: receptor expressed in Baculovirus; Cheng-Prussof from IC50
T1 construct: All six receptor types were derived from the expressed receptor type (RAR α, β, Γ and RXR α, β, Γ) expressed in Baculovirus
T1 sequence (P28704 1-520): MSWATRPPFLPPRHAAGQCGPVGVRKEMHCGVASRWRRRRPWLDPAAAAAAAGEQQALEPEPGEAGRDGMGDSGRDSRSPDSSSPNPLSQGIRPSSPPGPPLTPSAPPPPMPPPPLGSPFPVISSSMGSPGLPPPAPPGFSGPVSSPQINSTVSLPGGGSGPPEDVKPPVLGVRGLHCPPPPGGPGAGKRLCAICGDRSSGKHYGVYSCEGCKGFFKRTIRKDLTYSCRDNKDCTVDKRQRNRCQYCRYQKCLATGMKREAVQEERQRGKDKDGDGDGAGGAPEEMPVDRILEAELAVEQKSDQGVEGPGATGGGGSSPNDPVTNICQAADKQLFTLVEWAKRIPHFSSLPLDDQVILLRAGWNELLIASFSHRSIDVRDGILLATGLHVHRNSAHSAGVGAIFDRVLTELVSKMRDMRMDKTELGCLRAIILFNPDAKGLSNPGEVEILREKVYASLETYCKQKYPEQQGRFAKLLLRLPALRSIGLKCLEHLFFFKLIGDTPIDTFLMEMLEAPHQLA
Protocol: (§1) A description of the ligand binding assay is also provided below.
(§2) All binding assays were performed in a similar fashion. All six receptor types were derived from the expressed receptor type (RAR α, β, Γ and RXR α, β, Γ) expressed in Baculovirus. Stock solutions of all compounds were prepared as 10 mM ethanol solutions and serial dilutions carried out into 1:1 DMSO; ethanol. Assay buffers consisted of the following for all six receptor assays: 8% glycerol, 120 mM KCl, 8 mM Tris, 5 mM CHAPS 4 mM DTT and 0.24 mM PMSF, pH-7.4@room temperature.
(§3) All receptor biding assays were performed in the same manner. The final assay volume was 250 μl and contained from 10-40 μg of extract protein depending on receptor being assayed along with 5 nM of [^3H] all-trans retinoic acid or 10 nM [^3H] 9-cis retinoic acid and varying concentrations of competing ligand at concentrations that ranged from 0-10^−5 M. The assays were formatted for a 96 well minitube system. Incubations were carried out at 4° C. until equilibrium was achieved. Non-specific binding was defined as that binding remaining in the presence of 1000 nM of the appropriate unlabeled retinoic acid isomer. […] The wash buffer consisted of 100 mM KCl, 10 mM Tris and either 5 mM CHAPS (RXR α, β, Γ) or 0.5% Triton X-100 (RAR α, β, Γ). The mixture was vortexed and incubated for 10 minutes at 4° C., centrifuged and the supernatant removed. The hydroxyapitite was washed three more times with the appropriate wash buffer. The receptor-ligand complex was adsorbed by the hydroxyapitite. The amount of receptor-ligand complex was determined by liquid scintillation counting of hydroxyapitite pellet.
(§4) After correcting for non-specific binding, IC50 values were determined. […] The IC50 value was determined graphically from a loglogit plot of the data. The […] were determined by application of the Cheng-Prussof equation to the IC50 values, the labeled ligand concentration and the Kd of the labeled ligand.
(§5) The results of ligand binding assay are expressed in Kd numbers.

RXRΓ = target: T2, RXRΓ (UniProt P28705); assay: Ligand binding assay, RXRΓ; conditions: receptor expressed in Baculovirus; Cheng-Prussof from IC50
T2 construct: All six receptor types were derived from the expressed receptor type (RAR α, β, Γ and RXR α, β, Γ) expressed in Baculovirus
T2 sequence (P28705 1-463): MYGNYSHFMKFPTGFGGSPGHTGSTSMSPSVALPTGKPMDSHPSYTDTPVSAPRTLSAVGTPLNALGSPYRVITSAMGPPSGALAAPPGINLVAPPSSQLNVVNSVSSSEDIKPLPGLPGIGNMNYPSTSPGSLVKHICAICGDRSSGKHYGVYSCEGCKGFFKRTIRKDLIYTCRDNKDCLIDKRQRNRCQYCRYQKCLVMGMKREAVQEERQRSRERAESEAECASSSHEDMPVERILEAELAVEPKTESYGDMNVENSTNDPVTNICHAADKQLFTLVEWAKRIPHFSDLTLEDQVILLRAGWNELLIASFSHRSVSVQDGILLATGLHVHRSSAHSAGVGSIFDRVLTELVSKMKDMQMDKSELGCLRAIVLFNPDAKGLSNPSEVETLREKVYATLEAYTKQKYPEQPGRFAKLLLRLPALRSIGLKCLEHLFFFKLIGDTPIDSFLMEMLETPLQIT
Protocol: as §1, §2, §3, §4, §5

RARα = target: T3, RARα (Homo sapiens, UniProt P10276); assay: Ligand binding assay, RARα; conditions: receptor expressed in Baculovirus; [3H] all-trans retinoic acid; Cheng-Prussof from IC50
T3 construct: made in house; used as extract protein
T3 sequence (P10276 1-462): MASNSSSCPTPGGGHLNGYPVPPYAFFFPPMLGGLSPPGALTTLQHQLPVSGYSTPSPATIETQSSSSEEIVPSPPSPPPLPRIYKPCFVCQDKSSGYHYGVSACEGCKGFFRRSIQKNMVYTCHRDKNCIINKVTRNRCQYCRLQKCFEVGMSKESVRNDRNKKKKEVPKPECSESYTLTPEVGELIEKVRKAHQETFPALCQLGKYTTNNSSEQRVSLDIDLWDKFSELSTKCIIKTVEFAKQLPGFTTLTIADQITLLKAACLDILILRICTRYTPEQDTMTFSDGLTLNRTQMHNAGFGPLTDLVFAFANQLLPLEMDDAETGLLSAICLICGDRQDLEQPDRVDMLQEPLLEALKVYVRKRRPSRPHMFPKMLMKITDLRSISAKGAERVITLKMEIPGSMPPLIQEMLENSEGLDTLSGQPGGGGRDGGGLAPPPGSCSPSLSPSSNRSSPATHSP
Protocol: (§6) A holoreceptor transactivation assay and a ligand binding assay which measure the ability of the compounds of the invention to bind to the several retinoid receptor subtypes, respectively, are described in published PCT Application No. WO W093/11755 (particularly on pages 30-33 and 37-41) published on Jun. 24, 1993, the specification of which is also incorporated herein by reference. A description of the ligand binding assay is also provided below.
as §2
(§7) All receptor biding assays were performed in the same manner. The final assay volume was 250 μl and contained from 10-40 μg of extract protein depending on receptor being assayed along with 5 nM of [^3H] all-trans retinoic acid or 10 nM [^3H] 9-cis retinoic acid and varying concentrations of competing ligand at concentrations that ranged from 0-10^−5 M. The assays were formatted for a 96 well minitube system. Incubations were carried out at 4° C. until equilibrium was achieved. Non-specific binding was defined as that binding remaining in the presence of 1000 nM of the appropriate unlabeled retinoic acid isomer. At the end of the incubation period, 50 μl of 6.25% hydroxyapitite was added in the appropriate wash buffer. The wash buffer consisted of 100 mM KCl, 10 mM Tris and either 5 mM CHAPS (RXR α, β, Γ) or 0.5% Triton X-100 (RAR α, β, Γ). The mixture was vortexed and incubated for 10 minutes at 4° C., centrifuged and the supernatant removed. The hydroxyapitite was washed three more times with the appropriate wash buffer. The receptor-ligand complex was adsorbed by the hydroxyapitite. The amount of receptor-ligand complex was determined by liquid scintillation counting of hydroxyapitite pellet.
as §4
(§8) The results of ligand binding assay are expressed in Kd numbers. (See Chena et al. Biochemical Pharmacology Vol. 22 pp 3099-3108, expressly incorporated herein by reference.)

RXRα = target: T4, RXRα (Homo sapiens, UniProt P19793); assay: Ligand binding assay, RXRα; conditions: receptor expressed in Baculovirus; Cheng-Prussof from IC50
T4 construct: made in house; used as extract protein
T4 sequence (P19793 1-462): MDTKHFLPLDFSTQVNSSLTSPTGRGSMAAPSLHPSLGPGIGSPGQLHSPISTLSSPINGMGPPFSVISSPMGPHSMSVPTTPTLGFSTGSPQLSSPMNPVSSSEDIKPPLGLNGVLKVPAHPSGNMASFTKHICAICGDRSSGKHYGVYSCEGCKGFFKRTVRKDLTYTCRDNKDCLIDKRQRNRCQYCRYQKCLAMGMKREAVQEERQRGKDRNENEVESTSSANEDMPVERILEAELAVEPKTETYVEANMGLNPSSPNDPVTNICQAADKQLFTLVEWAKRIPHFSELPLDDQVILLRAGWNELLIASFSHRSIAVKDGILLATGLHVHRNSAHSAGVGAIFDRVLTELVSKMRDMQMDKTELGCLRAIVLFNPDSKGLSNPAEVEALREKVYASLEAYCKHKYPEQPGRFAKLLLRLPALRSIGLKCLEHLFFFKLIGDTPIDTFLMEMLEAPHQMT
Protocol: as §6, §2, §7, §4, §8

RARΓ = target: T5, RARΓ (Homo sapiens, UniProt P13631); assay: Ligand binding assay, RARΓ; conditions: receptor expressed in Baculovirus; Cheng-Prussof from IC50
T5 construct: made in house; used as extract protein
T5 sequence (P13631 1-454): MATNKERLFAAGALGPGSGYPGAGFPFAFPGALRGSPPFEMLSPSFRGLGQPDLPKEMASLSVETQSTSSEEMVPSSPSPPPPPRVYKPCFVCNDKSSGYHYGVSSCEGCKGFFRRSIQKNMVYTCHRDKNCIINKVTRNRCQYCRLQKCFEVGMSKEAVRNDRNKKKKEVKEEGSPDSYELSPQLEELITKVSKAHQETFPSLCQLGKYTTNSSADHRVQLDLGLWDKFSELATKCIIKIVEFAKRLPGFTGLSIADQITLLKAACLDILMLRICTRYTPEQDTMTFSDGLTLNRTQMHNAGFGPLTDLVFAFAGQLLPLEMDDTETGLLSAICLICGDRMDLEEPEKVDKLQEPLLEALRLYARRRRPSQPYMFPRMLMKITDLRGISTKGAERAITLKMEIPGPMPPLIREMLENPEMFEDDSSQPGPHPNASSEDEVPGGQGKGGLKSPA
Protocol: as §6, §2
as §7, with “The wash buffer consisted of 100 mM KCl, 10 mM Tris and either 5 mM CHAPS (RXR α, β, Γ) or 0.5% Triton X-100 (RAR α, β, Γ). The mixture was vortexed and incubated for 10 minutes at 4° C., centrifuged and the supernatant removed. The hydroxyapitite was washed three more times with the appropriate wash buffer. The receptor-ligand complex was adsorbed by the hydroxyapitite.” left out
as §4, with “ligand. […]” for “ligand.”

RARβ = target: T6, RARβ (Homo sapiens, UniProt P10826); assay: Ligand binding assay, RARβ; conditions: receptor expressed in Baculovirus; Cheng-Prussof from IC50
T6 construct: made in house; used as extract protein
T6 sequence (P10826 1-455): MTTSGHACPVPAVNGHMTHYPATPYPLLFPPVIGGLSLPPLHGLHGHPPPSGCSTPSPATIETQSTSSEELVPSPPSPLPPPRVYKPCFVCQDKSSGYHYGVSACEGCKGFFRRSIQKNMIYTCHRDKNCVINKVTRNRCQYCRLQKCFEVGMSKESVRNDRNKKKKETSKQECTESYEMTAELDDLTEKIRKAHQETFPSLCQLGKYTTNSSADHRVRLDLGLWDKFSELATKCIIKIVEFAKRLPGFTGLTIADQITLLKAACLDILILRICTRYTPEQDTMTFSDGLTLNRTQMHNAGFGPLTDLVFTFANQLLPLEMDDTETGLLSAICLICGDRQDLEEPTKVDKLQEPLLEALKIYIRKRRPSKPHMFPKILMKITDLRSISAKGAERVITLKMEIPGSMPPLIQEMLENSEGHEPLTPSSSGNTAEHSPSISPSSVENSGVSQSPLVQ
Protocol: as §6, §2
as §7, with “The wash buffer consisted of 100 mM KCl, 10 mM Tris and either 5 mM CHAPS (RXR α, β, Γ) or 0.5% Triton X-100 (RAR α, β, Γ). The mixture was vortexed and incubated for 10 minutes at 4° C., centrifuged and the supernatant removed. The hydroxyapitite was washed three more times with the appropriate wash buffer. The receptor-ligand complex was adsorbed by the hydroxyapitite.” left out
as §4, with “ligand. […]” for “ligand.”

| Molecule | Kd (RXRβ) [nM] | Kd (RXRΓ) [nM] | Kd (RARα) [nM] | Kd (RXRα) [nM] | Kd (RARΓ) [nM] | Kd (RARβ) [nM] |
| --- | --- | --- | --- | --- | --- | --- |
| CC(C)(C)c1cc(C(=O)Nc2cc(F)c(C(=O)O)c(F)c2)cc(C(C)(C)C)c1 [Compound 12] | > 1000 | > 1000 | 87 |  |  |  |
| CC(C)(C)c1cc(C(=O)Nc2cc(F)c(C(=O)O)c(F)c2)cc(C(C)(C)C)n1 [Compound 10] | > 1000 | > 1000 | 62 |  |  |  |
| 2-Fluoro-4-[(3′,5′-di-t-butyl)phenylcarbamoyl]benzoic Acid [Compound 6] | > 1000 | > 1000 |  | > 1000 |  |  |
| CC(C)(C)c1cc(C(=O)Nc2ccc(C(=O)O)cc2)cc(C(C)(C)C)n1 [Compound 4] | > 1000 | > 1000 | 19 | > 1000 | > 1000 | > 1000 |
| CC(C)(C)c1cc(C(=O)Nc2ccc(C(=O)O)c([N+](=O)[O-])c2)cc(C(C)(C)C)n1 [Compound 14] | > 1000 | > 1000 | 94 |  |  |  |
| CC(C)(C)c1cc(C(=O)Nc2ccc(C(=O)O)c(F)c2)c(O)c(C(C)(C)C)c1 [Compound 8] | > 1000 | > 1000 | 77 | > 1000 | > 1000 | > 1000 |
| CC(C)(C)c1cc(C(=O)Nc2ccc(C(=O)O)cc2)cc(C(C)(C)C)c1 [Compound 15, reference compound] | > 1000 | > 1000 | 37 | > 1000 | > 1000 | > 1000 |
